Measurements reported in ChEMBL document CHEMBL1201862, “PubChem BioAssay data set” (2004).
Calls of active or inactive are those of the source.

Experiments:
[1] = A Cell Based Secondary Assay To Explore Cytotoxicity of Compounds that Sensitize Mycobacterium Tuberculosis to Beta-Lactam Antibiotics.; assay type: functional
[2] = M. tuberculosis H37Rv growth inhibitors, H37Rv strain (AID 1626); assay type: functional
[3] = biological target: T1, Neuropeptide Y receptor type 1 (Homo sapiens, UniProt P25929); assay: NPY-Y1 receptor antagonist potency, dose response, cell-based (AID 1277); assay type: functional
T1 sequence (P25929 whole entry): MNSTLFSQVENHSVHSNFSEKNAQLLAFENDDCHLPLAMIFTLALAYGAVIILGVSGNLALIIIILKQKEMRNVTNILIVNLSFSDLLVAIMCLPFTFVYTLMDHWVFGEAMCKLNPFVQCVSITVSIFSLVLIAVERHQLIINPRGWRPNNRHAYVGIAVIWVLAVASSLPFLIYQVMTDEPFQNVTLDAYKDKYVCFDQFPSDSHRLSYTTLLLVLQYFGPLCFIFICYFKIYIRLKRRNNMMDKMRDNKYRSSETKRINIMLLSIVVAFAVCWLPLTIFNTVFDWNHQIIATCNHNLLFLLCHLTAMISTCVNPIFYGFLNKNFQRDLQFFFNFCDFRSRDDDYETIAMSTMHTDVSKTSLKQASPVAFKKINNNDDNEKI

[4] = biological target: T2, Neuropeptide Y receptor type 2 (Homo sapiens, UniProt P49146); assay: NPY-Y2 antagonist potency, selectivity check, dose response, counter-screen for NPY-Y1 antagonist project, cell-based (AID 1278); assay type: functional
T2 sequence (P49146 whole entry): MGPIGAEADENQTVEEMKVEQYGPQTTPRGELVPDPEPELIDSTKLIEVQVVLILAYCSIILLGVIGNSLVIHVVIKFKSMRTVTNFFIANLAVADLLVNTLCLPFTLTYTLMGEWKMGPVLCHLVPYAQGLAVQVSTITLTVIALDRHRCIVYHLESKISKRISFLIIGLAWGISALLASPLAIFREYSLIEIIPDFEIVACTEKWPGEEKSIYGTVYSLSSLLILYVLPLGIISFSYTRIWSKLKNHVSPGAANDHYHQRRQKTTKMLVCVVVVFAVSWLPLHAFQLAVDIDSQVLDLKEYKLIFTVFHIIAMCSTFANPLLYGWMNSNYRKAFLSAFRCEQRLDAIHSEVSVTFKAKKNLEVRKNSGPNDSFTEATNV

[5] = biological target: T3, Alkaline phosphatase, tissue-nonspecific isozyme (Homo sapiens, UniProt P05186); assay: TNAP enzyme inhibition by screening hits, dose response, selectivity assay for mouse IAP inhibitor project, biochemical, human TNAP, uHTS hits (AID 488906); assay type: functional
T3 sequence (P05186 whole entry): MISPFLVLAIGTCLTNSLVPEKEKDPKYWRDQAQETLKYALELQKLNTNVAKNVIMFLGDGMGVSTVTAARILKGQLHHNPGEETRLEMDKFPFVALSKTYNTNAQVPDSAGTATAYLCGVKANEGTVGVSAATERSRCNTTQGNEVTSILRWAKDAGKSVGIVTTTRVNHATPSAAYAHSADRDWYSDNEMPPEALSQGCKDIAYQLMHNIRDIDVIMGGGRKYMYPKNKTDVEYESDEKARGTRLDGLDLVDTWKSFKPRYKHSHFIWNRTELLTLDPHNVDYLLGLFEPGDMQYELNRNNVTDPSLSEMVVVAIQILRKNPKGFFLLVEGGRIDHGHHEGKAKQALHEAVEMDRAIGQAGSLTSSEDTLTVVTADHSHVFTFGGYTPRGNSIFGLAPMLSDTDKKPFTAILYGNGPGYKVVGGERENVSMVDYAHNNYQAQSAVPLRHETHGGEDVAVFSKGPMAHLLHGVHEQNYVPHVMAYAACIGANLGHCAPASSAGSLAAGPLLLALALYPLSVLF

[6] = biological target: Induced myeloid leukemia cell differentiation protein Mcl-1 (Homo sapiens, UniProt Q07820); assay: MCL1-BIM BH3 interaction inhibitors, dose response, biochemical, fluorescence polarization, BIM-BH3 peptide, 1536-well (AID 2217)
Sequence of Induced myeloid leukemia cell differentiation protein Mcl-1 (Q07820 whole entry): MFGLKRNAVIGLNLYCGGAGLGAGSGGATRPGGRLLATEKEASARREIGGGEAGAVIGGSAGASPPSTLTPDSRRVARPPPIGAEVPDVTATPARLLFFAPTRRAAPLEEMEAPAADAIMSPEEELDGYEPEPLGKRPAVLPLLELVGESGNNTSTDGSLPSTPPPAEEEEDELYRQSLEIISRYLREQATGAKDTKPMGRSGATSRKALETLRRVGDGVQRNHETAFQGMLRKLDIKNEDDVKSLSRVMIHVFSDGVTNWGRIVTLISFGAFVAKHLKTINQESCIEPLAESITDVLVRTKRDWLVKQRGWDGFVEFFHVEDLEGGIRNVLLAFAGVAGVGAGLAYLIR

Bcl-2-like protein 1 = Bcl-2-like protein 1 (Homo sapiens, UniProt Q07817); assay: BCL-XL inhibitors, dose response, selectivity assay for MCL1 inhibitor project, biochemical, fluorescence polarization, 1536-well (AID 2218)
Sequence of Bcl-2-like protein 1 (Q07817 whole entry): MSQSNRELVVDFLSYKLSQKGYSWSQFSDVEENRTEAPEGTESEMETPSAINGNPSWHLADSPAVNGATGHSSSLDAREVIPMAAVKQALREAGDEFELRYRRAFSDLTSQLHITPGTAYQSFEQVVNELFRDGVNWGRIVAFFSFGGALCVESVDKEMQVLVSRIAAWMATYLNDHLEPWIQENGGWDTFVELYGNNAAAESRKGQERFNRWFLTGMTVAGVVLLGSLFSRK

[7] = biological target: Intestinal-type alkaline phosphatase (Mus musculus, UniProt P24822); assay: PubChem AID 488785; assay type: functional
Sequence of Intestinal-type alkaline phosphatase (Mus musculus, UniProt P24822) (P24822 whole entry): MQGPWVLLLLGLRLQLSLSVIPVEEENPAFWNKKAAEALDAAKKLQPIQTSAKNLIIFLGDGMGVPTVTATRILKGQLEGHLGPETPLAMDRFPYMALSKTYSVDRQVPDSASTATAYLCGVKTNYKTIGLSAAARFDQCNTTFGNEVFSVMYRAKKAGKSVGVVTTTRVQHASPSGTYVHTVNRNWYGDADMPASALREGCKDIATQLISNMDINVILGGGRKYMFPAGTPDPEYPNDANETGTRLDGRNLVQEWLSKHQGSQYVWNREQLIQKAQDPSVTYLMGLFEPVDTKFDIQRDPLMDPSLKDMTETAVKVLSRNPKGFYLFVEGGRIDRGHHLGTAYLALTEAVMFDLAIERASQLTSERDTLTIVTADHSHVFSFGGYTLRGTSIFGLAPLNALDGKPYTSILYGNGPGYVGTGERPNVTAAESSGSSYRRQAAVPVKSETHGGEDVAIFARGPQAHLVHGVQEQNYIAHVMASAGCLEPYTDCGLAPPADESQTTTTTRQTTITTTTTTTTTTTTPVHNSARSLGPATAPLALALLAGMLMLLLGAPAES

[8] = biological target: Intestinal-type alkaline phosphatase (Homo sapiens, UniProt P09923); assay: inhibition of human intestinal alkaline phosphatase – biochemical, dose response (AID 488876); assay type: functional
Sequence of Intestinal-type alkaline phosphatase (Homo sapiens, UniProt P09923) (P09923 whole entry): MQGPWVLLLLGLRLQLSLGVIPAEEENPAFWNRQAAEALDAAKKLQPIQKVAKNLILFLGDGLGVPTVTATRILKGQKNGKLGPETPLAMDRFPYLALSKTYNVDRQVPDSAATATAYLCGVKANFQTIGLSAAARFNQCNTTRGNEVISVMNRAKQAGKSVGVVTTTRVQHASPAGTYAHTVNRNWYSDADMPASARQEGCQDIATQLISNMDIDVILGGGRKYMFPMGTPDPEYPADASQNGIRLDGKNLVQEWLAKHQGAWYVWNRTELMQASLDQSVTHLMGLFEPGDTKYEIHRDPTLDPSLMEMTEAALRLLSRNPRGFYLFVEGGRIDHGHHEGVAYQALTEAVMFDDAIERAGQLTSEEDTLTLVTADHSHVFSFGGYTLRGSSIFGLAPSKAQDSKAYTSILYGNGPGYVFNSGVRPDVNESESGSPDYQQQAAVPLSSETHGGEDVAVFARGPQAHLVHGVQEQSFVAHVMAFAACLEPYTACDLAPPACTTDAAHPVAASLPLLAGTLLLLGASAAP

[9] = biological target: NAD-dependent protein deacylase sirtuin-5, mitochondrial (Homo sapiens, UniProt Q9NXA8); assay: SIRT5 desuccinylase inhibitors, dose response, biochemical, fluorescence imaging, cherry-pick, set 5 (AID 720591);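 further: desuccinylation of succinyl peptide AMC substrate read as fluorescence after trypsin release; potency of inhibitors that lower fluorescence and may act on trypsin instead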
Sequence of NAD-dependent protein deacylase sirtuin-5, mitochondrial (Q9NXA8 whole entry): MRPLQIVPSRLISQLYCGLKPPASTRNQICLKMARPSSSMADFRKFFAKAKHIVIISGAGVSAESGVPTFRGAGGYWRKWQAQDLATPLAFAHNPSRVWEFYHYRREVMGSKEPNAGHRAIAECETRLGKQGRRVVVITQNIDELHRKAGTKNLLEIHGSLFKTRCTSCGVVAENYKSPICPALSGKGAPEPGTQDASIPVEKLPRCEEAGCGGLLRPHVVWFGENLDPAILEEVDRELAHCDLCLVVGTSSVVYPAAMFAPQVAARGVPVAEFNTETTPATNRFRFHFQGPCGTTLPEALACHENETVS

[10] = biological target: T4, Histone-lysine N-methyltransferase NSD2 (Homo sapiens, UniProt O96028); assay type: biochemical
T4 sequence (O96028 whole entry): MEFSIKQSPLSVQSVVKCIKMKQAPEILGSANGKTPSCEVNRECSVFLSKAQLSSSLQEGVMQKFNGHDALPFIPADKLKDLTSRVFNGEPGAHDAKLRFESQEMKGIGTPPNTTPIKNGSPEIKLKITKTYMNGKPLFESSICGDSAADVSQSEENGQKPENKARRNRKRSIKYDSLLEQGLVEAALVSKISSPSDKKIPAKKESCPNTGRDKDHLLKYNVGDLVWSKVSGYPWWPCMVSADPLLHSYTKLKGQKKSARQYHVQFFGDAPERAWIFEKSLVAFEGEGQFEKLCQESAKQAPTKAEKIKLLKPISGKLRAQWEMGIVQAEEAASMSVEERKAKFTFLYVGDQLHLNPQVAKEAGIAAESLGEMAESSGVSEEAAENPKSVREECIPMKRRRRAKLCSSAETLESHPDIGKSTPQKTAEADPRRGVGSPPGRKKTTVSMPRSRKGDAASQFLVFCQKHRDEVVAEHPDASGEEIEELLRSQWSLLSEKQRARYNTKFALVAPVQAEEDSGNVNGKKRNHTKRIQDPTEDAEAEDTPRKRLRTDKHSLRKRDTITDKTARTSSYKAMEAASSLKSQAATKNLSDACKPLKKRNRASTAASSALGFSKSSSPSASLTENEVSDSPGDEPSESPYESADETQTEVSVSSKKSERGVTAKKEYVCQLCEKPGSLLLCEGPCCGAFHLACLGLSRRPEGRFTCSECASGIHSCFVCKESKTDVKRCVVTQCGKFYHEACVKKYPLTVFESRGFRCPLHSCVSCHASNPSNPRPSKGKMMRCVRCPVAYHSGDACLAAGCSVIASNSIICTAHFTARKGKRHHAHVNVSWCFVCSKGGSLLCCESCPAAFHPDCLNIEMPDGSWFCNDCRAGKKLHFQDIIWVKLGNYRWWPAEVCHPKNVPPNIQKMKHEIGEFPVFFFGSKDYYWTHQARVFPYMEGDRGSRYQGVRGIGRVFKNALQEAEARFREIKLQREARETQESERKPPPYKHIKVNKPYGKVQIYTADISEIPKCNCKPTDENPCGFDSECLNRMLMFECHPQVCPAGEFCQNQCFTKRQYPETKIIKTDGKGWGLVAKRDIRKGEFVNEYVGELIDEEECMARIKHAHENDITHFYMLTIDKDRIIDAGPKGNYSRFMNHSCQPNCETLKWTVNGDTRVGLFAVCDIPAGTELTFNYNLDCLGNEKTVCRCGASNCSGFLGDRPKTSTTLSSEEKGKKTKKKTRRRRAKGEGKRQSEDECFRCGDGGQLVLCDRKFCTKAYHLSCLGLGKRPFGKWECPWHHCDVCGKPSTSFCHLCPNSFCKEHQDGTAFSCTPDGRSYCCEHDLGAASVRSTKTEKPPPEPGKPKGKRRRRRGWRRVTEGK

Cytochrome P450 3A4 = Cytochrome P450 3A4 (Homo sapiens, UniProt P08684); settings: Potency;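 further: confirmatory qHTS run detecting inhibitors and substrates of CYP3A4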
Sequence of Cytochrome P450 3A4 (P08684 whole entry): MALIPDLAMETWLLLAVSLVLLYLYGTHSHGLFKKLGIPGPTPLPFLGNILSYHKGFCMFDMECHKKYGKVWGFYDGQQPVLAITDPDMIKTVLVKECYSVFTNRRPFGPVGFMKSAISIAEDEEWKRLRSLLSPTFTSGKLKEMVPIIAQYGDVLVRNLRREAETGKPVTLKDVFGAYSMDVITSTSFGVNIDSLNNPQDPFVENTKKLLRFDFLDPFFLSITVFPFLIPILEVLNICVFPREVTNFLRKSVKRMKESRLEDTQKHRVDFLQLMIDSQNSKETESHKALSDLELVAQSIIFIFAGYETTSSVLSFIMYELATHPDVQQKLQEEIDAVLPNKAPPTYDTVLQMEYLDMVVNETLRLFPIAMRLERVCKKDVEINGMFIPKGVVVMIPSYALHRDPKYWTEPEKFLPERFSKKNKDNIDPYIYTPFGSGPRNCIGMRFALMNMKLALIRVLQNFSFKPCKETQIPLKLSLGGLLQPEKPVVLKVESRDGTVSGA

Cytochrome P450 2D6 = Cytochrome P450 2D6 (Homo sapiens, UniProt P10635); assay: qHTS Assay for Inhibitors and Substrates of Cytochrome P450 2D6. [Related pubchem assays: 410 ]; assay type: ADME; settings: read-out: Potency
Sequence of Cytochrome P450 2D6 (P10635 whole entry): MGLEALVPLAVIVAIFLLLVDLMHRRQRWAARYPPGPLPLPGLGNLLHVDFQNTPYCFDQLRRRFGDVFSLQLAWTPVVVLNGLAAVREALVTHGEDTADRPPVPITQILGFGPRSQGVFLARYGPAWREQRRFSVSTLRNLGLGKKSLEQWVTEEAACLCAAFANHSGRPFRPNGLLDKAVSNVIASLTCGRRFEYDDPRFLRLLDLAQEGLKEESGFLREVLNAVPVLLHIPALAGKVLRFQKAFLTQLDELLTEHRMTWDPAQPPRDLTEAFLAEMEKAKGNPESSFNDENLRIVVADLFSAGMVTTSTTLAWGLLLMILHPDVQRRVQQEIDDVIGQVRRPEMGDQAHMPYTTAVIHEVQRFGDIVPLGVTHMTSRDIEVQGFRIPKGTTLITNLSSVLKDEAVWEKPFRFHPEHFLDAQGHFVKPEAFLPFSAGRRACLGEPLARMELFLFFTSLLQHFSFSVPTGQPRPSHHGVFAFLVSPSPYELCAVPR

SMILES	IC50 [3]	IC50 [4]	IC50 [5]	IC50 [6]	IC50 (Bcl-2-like protein 1)	IC50 [7]	IC50 [8]	also measured
Sc1ncnc2scc(-c3ccc(Br)cc3)c12								CC50 [1]: 25.9 µM (active); IC50 [2]: > 100 µM (active)
CC(C)(C)NCc1cc(Br)ccc1OC1CCCC1	7.43 µM (active)	11.2 µM (not active)						
CCN(C(=O)C(C)N1C(=O)/C(=C/c2ccco2)SC1=S)C1CCS(=O)(=O)C1 (stereo not given)			11.1 µM (active)	> 12.1 µM (not active)	> 109 µM (not active)	0.419 µM (active)	3.79 µM (active)	
N#Cc1c(SCC(=O)Nc2nncs2)sc2c(O)cc(=O)[nH]c12			> 100 µM (inactive)	25.3 µM (not active)	96.5 µM (not active)	2.3 µM (active)	> 100 µM (inactive)	AC50 [9]: 4.58 µM (active); AC50 [10]: 6.29 µM (active)
CCOC(=O)C1(CCCc2ccccc2)CCN(C2CCSCC2)CC1	16.7 µM (not active)	> 35 µM (not active)						
CC(C)CN1CCc2nc(-c3ccccc3)c3c(c2C1)COC(C)C3 (stereo not given)								AC50 (Cytochrome P450 3A4): 3.16 µM (inconclusive); AC50 (Cytochrome P450 2D6): 3.16 µM (inconclusive)
